The text below walks through data of article PMC5290327, “SC83288 is a clinical development candidate for the treatment of severe malaria” (Nature Communications, 2017).

Converted amounts (≈) assume the structure as drawn. Where two headings read alike, the source gives them in different places.

Series [1] deals with P. falciparum strain Thai19. As to the kind of experiment: Growth inhibition assay. Particulars: Plasmodium falciparum. The series is classed as cell-based.
Series [2] has as its system P. falciparum strain 7G8. As to the kind of experiment: microbe, parasite or virus in culture. Format: cell-based. The conditions noted are these: Plasmodium falciparum.
For series [3], the system named is P. falciparum strain Dd2. Description: Growth inhibition assay, asexual blood stages. The series is classed as cell-based, Plasmodium falciparum.
Series [4] concerns P. falciparum strain 3D7. As to the kind of experiment: Growth inhibition assay. The series is classed as cell-based. Particulars: Plasmodium falciparum.
Series [5] has as its system P. falciparum strain D10. Description: Growth inhibition assay. The series is classed as cell-based. Particulars: Plasmodium falciparum.
Series [6] relates to P. falciparum strain FCR3. As to the kind of experiment: Growth inhibition assay. The series is classed as cell-based. Particulars: Plasmodium falciparum.
For series [7], the system named is P. falciparum strain K1. Description: microbe, parasite or virus in culture. The series is classed as cell-based. Particulars: Plasmodium falciparum.
For series [8], the system named is Dd2 P. falciparum parasites. Description: In vitro parasite reduction ratio assay (Sanz protocol). Format: cell-based, Plasmodium falciparum.
The nature of series [9]: In vitro metabolism in liver microsomes. Particulars: Mouse. On the technique in general: Liver microsomes are vesicles of endoplasmic reticulum, rich in cytochrome P450 enzymes.
The nature of series [10]: In vitro metabolism in liver microsomes. Particulars: Human.
Series [11] can be described thus: In vitro metabolism in liver microsomes. The conditions noted are these: Dog.
Series [12] can be described thus: In vitro metabolism in liver microsomes. The conditions noted are these: Rat.
Series [13] can be described thus: In vitro metabolism in liver microsomes. Particulars: Monkey.
The nature of series [14]: Solubility in water. Particulars: for Solubility in H2O: Supplementary Table 2.
The subject of series [15] is Plasmodium vinckei. Description: Rodent malaria model. The conditions noted are these: P. vinckei. Format: in vivo. An excerpt:
The two SC compounds were also active in the Plasmodium vinckei rodent malaria model system.

In series [16] the test system is CACO 2 cells. Description: Permeability assay. The series is classed as in vitro ADME. The conditions noted are these: Supplementary Table 2. The procedure:
The study was conducted by Cyprotex (Macclesfield, United Kingdom). CACO 2 cells (Sigma-Aldrich, catalogue: 86010202) were seeded on Millipore Millicell plates and formed a confluent monolayer over 20 days before the experiment. On day 20, the tested compounds at a final concentration of 10 μM were added to the apical side of the membrane. The transport of the compound across the monolayer was monitored over a 2 h period by liquid chromatography (LC)–MS/MS quantification. The permeability coefficient (Papp) was calculated from the following equation: [drawing 1] , where dQ/dt is the rate of permeation of the drug across the cells, C0 the donor compartment concentration at time zero and A the area of the cell monolayer. C0 was obtained from analysis of the dosing solution at the start of the experiment.

Setting [17] is: Plasmodium falciparum, DD2, strain Dd2, Supplementary Table 3.
[18] abbreviates: major metabolite, read-out: IC50, antiplasmodial activity in vitro.
The mark [19] stands for this setting: Supplementary Table 2, read-out: In vitro IC50.
Setting [20] is: Supplementary Table 8, read-out: In vitro IC50.

By IC50 is commonly meant the concentration needed to halve the response being measured. For the compound `CCN(CC)Cc1cc(Nc2ccnc3cc(Cl)ccc23)ccc1O` [Amodiaquin], the IC50 came out at 9 ± 1 nM in series [1]; 7 ± 2 nM in [2]; 7 ± 1 nM in [3] (setting [17]); 8 ± 1 nM in series [4]; 7 ± 2 nM in series [5]; 8 ± 0.4 nM in series [6]. Besides, 9 ± 1 nM corresponded to half-maximal inhibition in series [7] (IC50).

In the case of `C[C@@H]1CC[C@H]2[C@@H](C)C(=O)O[C@@H]3O[C@@]4(C)CC[C@@H]1[C@]32OO4` [Artemisinin], the concentration for half-maximal inhibition (IC50) in series [1] was determined as 3 ± 1 nM; in series [2], 1 ± 0.3 nM; in series [3] (setting [17]) it was 2 ± 0.1 nM; in series [4] it was 8 ± 0.3 nM; in [5], 9 ± 0.4 nM; in series [6], 5 ± 1 nM. Further, in [7], the concentration for half-maximal inhibition (IC50) was 3 ± 1 nM. In addition, the “In vitro PCT99.9%” value in series [8] (10 times IC50, Dd2) is 21 ± 3 h. In addition, the “In vitro lag phase” value in series [8] (10 times IC50, Dd2) is given as “zero”. Besides, the “In vitro logPRR” value in series [8] (10 times IC50, Dd2, over 48 h) came to 4.5±2.

Take `CCN(CC)CCCC(C)Nc1ccnc2cc(Cl)ccc12` (centres unmarked) [Chloroquine]: the IC50 in series [1] was 74 ± 17 nM; in series [2] it was 30 ± 70 nM; in series [4], 3 nM; in series [5], 11 ± 30 nM; in series [6], 25 ± 40 nM; in series [7], 70 ± 14 nM.

As to `OC(c1cc(C(F)(F)F)nc2c(C(F)(F)F)cccc12)C1CCCCN1` (centres unmarked) [Mefloquine], the IC50 in series [1] turned out to be 0.01 nM; in series [2], 0.2 ± 0.1 nM; in series [3] (setting [17]) it was 0.04 ± 0.1 nM; in [4], 0.04 ± 0.1 nM; in [5] it was 0.01 nM; in series [6] it was 0.04 nM. This compound came in with an IC50 in series [7] of 0.01 nM.

As for `N=C(c1cccc(NC(=O)Nc2ccc(S(=O)(=O)NCc3ccc(S(N)(=O)=O)cc3)cc2)c1)N1CCNCC1` [Metabolite 1], the “Share of metabolite from the total combined metabolite peak area” value (shortened to “Share of metabolite”) was found to be 22.2% in [9] (SC81458 metabolites); 5% in series [9] (SC83288 metabolites); 7% in series [10] (SC81458 metabolites); 13.3% in series [10] (SC83288 metabolites); 63.6% in [11] (SC81458 metabolites); 87.3% in [11] (SC83288 metabolites). The “Share of metabolite” value in [12] (SC81458 metabolites) came to 27.8%; in series [12] (SC83288 metabolites) it was 19.7%; in series [13] (SC81458 metabolites), 10.5%; in series [13] (SC83288 metabolites), 16.2%. In addition, the IC50 in series [3] (setting [18]) was 65 nM.

Regarding `CCc1nc(N)nc(N)c1-c1ccc(Cl)cc1` [Pyrimethamine], the IC50 in [1] is greater than 15000 nM; in series [2], greater than 15000 nM; in series [4], 16 ± 3 nM; in series [5] it was 11 ± 2 nM; in series [6] it was 31 ± 8 nM; in series [7], greater than 15000 nM.

On to `C=C[C@H]1C[N@@]2CC[C@H]1C[C@@H]2[C@@H](O)c1ccnc2ccc(OC)cc12` [Quinidine], for which the IC50 in [1] was determined as 22 ± 5 nM; in [2], 16 ± 4 nM; in [3] (setting [17]), 15 ± 1 nM; in series [4], 14 ± 1 nM; in series [5] it was 16 ± 1 nM; in series [6] it was 32 ± 6 nM. The compound further displayed an IC50 in [7] of 12 ± 3 nM.

`C=C[C@H]1C[N@@]2CC[C@H]1C[C@H]2[C@H](O)c1ccnc2ccc(OC)cc12` [Quinine]: the half-inhibitory concentration (IC50) in series [1] was 62 ± 10 nM; in [2], 70 ± 17 nM; in [3] (setting [17]) it was 100 ± 10 nM; in series [4], 14 ± 20 nM; in [5], 58 ± 50 nM; in series [6] it was 182 ± 27 nM. Besides, in [7], the half-maximal inhibitory concentration (IC50) worked out at 46 ± 40 nM.

As to `N=C(N)c1cccc(NC(=O)Nc2ccc(S(=O)(=O)c3ccc(Br)cc3)cc2)c1` [SC48443], the IC50 in [3] (setting [19]) is 63.9 nM. The “Solubility in H2O” value in [14] stood at 100 µg/mL (≈ 211 µM).

Consider `N=C(c1cccc(NC(=O)Nc2ccc(S(=O)(=O)c3ccc(Br)cc3)cc2)c1)N1CCC(O)CC1` [SC77215], for which the IC50 in series [3] (setting [20]) came out at 68 nM. Besides, in series [15] (20 mg kg-1 i.p. 1x4 days), the “Outcome: decrease of parasitemia” value is 45%.

With `N=C(c1cccc(NC(=O)Nc2ccc(S(=O)(=O)NCc3ccc(S(N)(=O)=O)cc3)cc2)c1)N1CCC(O)CC1` [SC77225], the IC50 in series [3] (setting [19]) stood at 165 nM. In addition, the Papp in series [16] is 0.38 10-6 cm s-1.

With `N=C(c1cccc(NC(=O)Nc2ccc(S(=O)(=O)NCc3ccc(S(N)(=O)=O)cc3)cc2)c1)N1CCN(CCO)CC1` [SC81452], the IC50 in series [3] (setting [19]) was determined as 100 nM. In addition, the “Solubility in H2O” value in series [14] is 32 µg/mL (≈ 52 µM).

As for `CCCCN1CCN(C(=N)c2cccc(NC(=O)Nc3ccc(S(N)(=O)=O)cc3)c2)CC1` [SC81458 M5], the “Share of metabolite” value is listed as 49% in series [9] (SC81458 metabolites); 51.4% in series [10] (SC81458 metabolites); 3.1% in [11] (SC81458 metabolites); 23.3% in series [12] (SC81458 metabolites); 0.1% in [13] (SC81458 metabolites).

As for `C=CNC(=N)c1cccc(NC(=O)Nc2ccc(S(=O)(=O)NCc3ccc(S(N)(=O)=O)cc3)cc2)c1` [SC81458 M30], the “Share of metabolite” value in series [9] (SC81458 metabolites) is on record as 1.8%.

On to `N=C(c1cccc(NC(=O)Nc2ccc(S(=O)(=O)NCc3ccc(S(N)(=O)=O)cc3)cc2)c1)N1CCN(Cc2ccncc2)CC1` [SC82687], for which the 50% inhibitory concentration (IC50) in series [3] (setting [19]) was found to be 995 nM. Moreover, the “Solubility in H2O” value in series [14] turned out to be 32 µg/mL (≈ 48.3 µM).

Consider `CCCCCN1CCN(C(=N)c2cccc(NC(=O)Nc3ccc(S(=O)(=O)NCc4ccc(S(N)(=O)=O)cc4)cc3)c2)CC1` [SC82833], for which the IC50 in series [3] (setting [19]) was determined as 13 nM. Further, in series [14], the “Solubility in H2O” value was found to be 100 µg/mL (≈ 156 µM).

Take `CCN(CC)CCN(C)C(=N)c1cccc(NC(=O)Nc2ccc(S(=O)(=O)NCc3ccc(S(N)(=O)=O)cc3)cc2)c1` [SC82869]: in series [3] (setting [19]), the IC50 came to 89 nM. The “Solubility in H2O” value in [14] came out at 320 µg/mL (≈ 520 µM).

With `N=C(c1cccc(NC(=O)Nc2ccc(S(=O)(=O)NCc3ccc(S(N)(=O)=O)cc3)cc2)c1)N1CCNCC1` [SC82904], the IC50 in series [3] (setting [20]) is 99 nM. Moreover, in series [15] (30 mg kg-1 i.p. 1x4 days), the Outcome result is recorded as “no complete clearance” and the “Outcome: decrease of parasitemia” value is given as greater than 80%.

As for `CC(=O)N1CCN(C(=N)c2cccc(NC(=O)Nc3ccc(S(=O)(=O)NCc4ccc(S(N)(=O)=O)cc4)cc3)c2)CC1` [SC83287], in series [3] (setting [19]), the IC50 is 5000 nM. The “Solubility in H2O” value in series [14] amounted to 10 µg/mL (≈ 16.3 µM).

With `N=C(c1cccc(NC(=O)Nc2ccc(S(=O)(=O)NCc3ccc(S(N)(=O)=O)cc3)cc2)c1)N1CCN(C=O)CC1` [SC83288 M8], the “Share of metabolite” value is 0.9% in series [9] (SC83288 metabolites); 0.1% in series [10] (SC83288 metabolites); 0.5% in series [11] (SC83288 metabolites); 0.6% in series [12] (SC83288 metabolites); 0.2% in [13] (SC83288 metabolites).

Consider `COC(=O)N1CCN(C(=N)c2cccc(NC(=O)Nc3ccc(S(N)(=O)=O)cc3)c2)CC1` [SC83288 M9], for which the “Share of metabolite” value in series [9] (SC83288 metabolites) was found to be 69.9%; in [10] (SC83288 metabolites), 82%; in series [11] (SC83288 metabolites) it was 4.8%; in series [12] (SC83288 metabolites), 69%; in series [13] (SC83288 metabolites) it was 72.3%.

With `CCCCC(=O)N1CCN(C(=N)c2cccc(NC(=O)Nc3ccc(S(=O)(=O)NCc4ccc(S(N)(=O)=O)cc4)cc3)c2)CC1` [SC83290], the IC50 in [3] (setting [19]) was 40 nM. Besides, the “Solubility in H2O” value in [14] was greater than 1000 µg/mL. Moreover, in series [15] (30 mg kg-1 i.p. 1x4 days), the Outcome entry is “no complete clearance” and the “Outcome: decrease of parasitemia” value is greater than 90%.

Broadly, the solubility is the concentration that dissolves in the medium under given conditions. `N=C(N)c1cccc(NC(=O)Nc2cccc(C(=N)N)c2)c1` [amicarbalide, reference compound]: the IC50 in [3] (Plasmodium falciparum, DD2, read-out: In vitro IC50, Supplementary Table 2) amounted to 10 nM. In [14] (water), this compound showed a solubility of 100 µg/mL (≈ 337 µM).

Take `N=C(c1cccc(NC(=O)Nc2ccc(S(N)(=O)=O)cc2)c1)N1CCNCC1` [metabolite 2]: the “Share of metabolite” value is 4.7% in [10] (SC81458 metabolites); 0.3% in series [10] (SC83288 metabolites); 1.6% in series [11] (SC81458 metabolites); 0.3% in series [12] (SC81458 metabolites); 0.3% in series [12] (SC83288 metabolites); 7.6% in [13] (SC81458 metabolites). Also, in [13] (SC83288 metabolites), the “Share of metabolite” value is given as 5.4%. Moreover, the IC50 in [3] (setting [18]) turned out to be 5000 nM.
